Here are results for 20 compounds from ChEMBL document CHEMBL1148305, “5-substituted derivatives of 6-halogeno-3-((2-(S)-azetidinyl)methoxy)pyridine and 6-halogeno-3-((2-(S)-pyrrolidinyl)methoxy)pyridine with low picomolar affinity for alpha4beta2 nicotinic acetylcholine receptor and wide range of lipophilicity: potential probes for imaging with positron emission …” (J Med Chem, 2004).

This assay deals with Neuronal acetylcholine receptor; alpha4/beta2 (Rattus norvegicus, UniProt P09483+P12390). The assay is described as follows: Ability of compound to compete with 50 pM of 5-[125I]iodo-A-85,380 for receptor binding sites in rat brain membranes at room temperature. Format: cell membranes.

pKi: −log10 of the molar value.

By pKi is commonly meant the Ki on a negative log10 scale, so that one unit is a factor of ten. Read a high pKi as a small Ki. Take `Clc1ncc(OC[C@@H]2CCCN2)cc1-c1ccc(Br)nc1`: the pKi was 10.71.

For `Clc1ccc(-c2cc(OC[C@@H]3CCN3)cnc2Cl)cn1`, the pKi is 11.35. This pKi lies 0.64 log units higher than the previous one.

`Fc1ncc(-c2cc(OC[C@@H]3CCN3)cnc2Cl)cc1Br` gave a negative-log Ki (pKi) of 11.40.

In turn, `Clc1ncc(OC[C@@H]2CCCN2)cc1/C=C/c1ccnc(Br)c1` gave a pKi of 11.25.

Consider `Clc1ncc(OC[C@@H]2CCN2)cc1-c1cccnc1`, for which the pKi was 11.09.

As to `Fc1cc(-c2cc(OC[C@@H]3CCN3)cnc2Cl)ccn1`, the pKi is 11.32.

For `Ic1ncc(OC[C@@H]2CCN2)cc1-c1cccnc1`, the pKi is 10.93.

As to `Brc1ncc(OC[C@@H]2CCN2)cc1-c1cccnc1`, the pKi was 11.18.

The compound `Fc1ccc(-c2cc(OC[C@@H]3CCN3)cnc2Cl)cn1` had a pKi of 11.31.

For the compound `Fc1cc(/C=C/c2cc(OC[C@@H]3CCCN3)cnc2Cl)ccn1`, the pKi was 11.03.

Regarding `Fc1ccnc[n+]1-c1cc(OC[C@@H]2CCN2)cnc1Cl`, the pKi was 11.06.

`Fc1ncc(OC[C@@H]2CCN2)cc1-c1cccnc1`: the pKi is 10.18.

Consider `Clc1ncc(OC[C@@H]2CCN2)cc1-c1ccc(Br)nc1`, for which the pKi is 11.37.

`Clc1ccc(OC[C@@H]2CCN2)cn1` gave a negative-log Ki (pKi) of 10.47.

On to `Clc1ncc(OC[C@@H]2CCN2)cc1/C=C/c1ccncc1`, for which the pKi was 11.05.

`Fc1ncc(/C=C/c2cc(OC[C@@H]3CCN3)cnc2Cl)cc1Br`: the pKi was 11.11.

Turning to `Clc1ncc(OC[C@@H]2CCN2)cc1/C=C/c1ccnc(Br)c1`, the pKi is 11.28.

For `Fc1cc(/C=C/c2cc(OC[C@@H]3CCN3)cnc2Cl)ccn1`, the pKi was 11.51. Compared with the last compound, the pKi is 0.23 log units higher.

`Clc1ncc(OC[C@@H]2CCN2)cc1-c1ccnc(Br)c1` gave a pKi of 11.48.

On to `Fc1ccc(-c2cc(OC[C@@H]3CCCN3)cnc2Cl)cn1`, for which the pKi is 10.75. This pKi is 0.73 log units lower than that of the compound before.
